Source: PubChem BioAssay (NCI)
Where “and” joins values, the source holds several entries; their conditions need not be identical. Equal entries are not always repeated.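 Exposure lasted 48 hours, with cells grown in 96-well plates and compounds tested at five concentrations. The concentration for 50% growth inhibition is given as GI50. TGI marks complete inhibition of growth.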

What was measured:
Experiment in all cases: DTP human tumour cell line panel, 48 h
[1] = test system: UACC-257 melanoma
[2] = test system: HCT-15 colon
[3] = test system: NCI-H460 lung
[4] = test system: DU-145 prostate
[5] = test system: MDA-MB-231 breast
[6] = test system: LOX IMVI melanoma
[7] = test system: NCI-H522 lung
[8] = test system: COLO 205 colon
[9] = test system: HOP-92 NSCLC
[10] = test system: SK-MEL-5 melanoma

Structure (SMILES)	GI50 [1]	TGI [1]	GI50 [2]	TGI [2] [µM]	GI50 [3]	TGI [3] [µM]	GI50 [4]	TGI [4]	GI50 [5]	TGI [5] [µM]	GI50 [6]	TGI [6] [µM]	GI50 [7]	TGI [7]	GI50 [8]	TGI [8]	GI50 [9]	TGI [9] [µM]	GI50 [10]	TGI [10]
CC(=O)Oc1ccc(C2(c3ccc(OC(C)=O)cc3)C(=O)Nc3ccccc32)cc1	24.1 µM and 28.2 µM	79.4 µM and > 100 µM	20.5 µM and 25.8 µM	> 100	36.6 µM and 46.3 µM	> 100	24.4 µM and 28.7 µM	> 70.4 µM and 95.3 µM	25.6 µM and 37.8 µM	> 100	16800 nM and 13800 nM	> 100	3.12 µM and 4.56 µM	> 100 µM	74.1 nM and 155 nM	11.9 µM and 29.8 µM	11.8 µM and 16.2 µM	> 79.6	24.6 µM and 36.1 µM	> 100 µM
C1=C2CNCC3=Cc4ccc5ccccc5c4OC23Oc2c1ccc1ccccc21	12.6 µM	38.7 µM	3.9 µM	22.6	3.27 µM	13.1	3.29 µM	11.1 µM	9.34 µM	27.2	2430 nM	7.48	3.01 µM	13.1 µM	2090 nM	4.23 µM	2.86 µM	17.1	3.15 µM	13.9 µM
O=C(O)C1C2C=CC(O2)C1C(=O)Nc1ncccn1 (stereo not given)	–	> 100 µM	–	> 100	–	> 100	–	> 100 µM	–	> 100	–	> 100	–	> 100 µM	–	> 100 µM	–	> 100	–	> 100 µM
COc1ccc2cc(-c3c(-c4ccncc4)nc(-c4ccc(S(C)=O)cc4C)n3C)ccc2c1 (stereo not given)	14.8 µM	> 25 µM	16.7 µM	> 25	24.6 µM	> 25	> 25 µM	> 25 µM	> 25 µM	> 25	16400 nM	> 25	10.6 µM	> 25 µM	14800 nM	> 25 µM	4.66 µM	> 25	7.58 µM	> 21.6 µM
COc1cc([C@H]2c3[nH]c4ccccc4c3C[C@H]3COC(=O)N32)cc(OC)c1O	–	> 100 µM	–	38.5	–	23.2	–	–	–	49.8	–	20.8	–	–	–	37.5 µM	–	> 88	–	17.4 µM
C/C(=N\n1c(N)c(C#N)c(-c2ccc(Cl)cc2)c(C#N)c1=O)c1ccncc1	13.5 µM	95.3 µM	58.2 µM	> 100	22.4 µM	82.5	11.1 µM	44.7 µM	12.6 µM	44.2	35400 nM	> 100	–	–	> 100000 nM	> 100 µM	0.61 µM	4.17	21.8 µM	> 100 µM
Cn1cnc([N+](=O)[O-])c1Sc1nc(N)nc2nc[nH]c12	8.38 µM	> 100 µM	5.11 µM	> 100	2.25 µM	> 100	2.91 µM	> 100 µM	4.88 µM	> 100	488 nM	> 100	3.56 µM	> 90.5 µM	15000 nM	> 74.5 µM	3.1 µM	> 100	3.89 µM	22.4 µM
NC(N)=N/N=C/c1c(-c2ccc(Cl)c([N+](=O)[O-])c2)nc2n1CCS2	20.6 µM	51.8 µM	23.1 µM	67.3	11.6 µM	> 100	14.5 µM	28.2 µM	2.88 µM	8.86	2430 nM	7.09	35.6 µM	> 100 µM	15100 nM	39.8 µM	–	–	15 µM	36.7 µM
COc1ccc(-c2nc3c(c(=O)n2C(C)=O)C(c2ccc(Cl)cc2)c2sc4c(Cl)cccc4c2O3)cc1 (stereo not given)	0.776 µM	3.29 µM	0.301 µM	1.66	0.365 µM	1.38	0.394 µM	1.96 µM	0.589 µM	2.43	504 nM	1.84	0.259 µM	1.48 µM	355 nM	1.32 µM	1.33 µM	4.58	0.297 µM	1.11 µM
Cn1cc(CO)c2ccccc21	> 100 µM	> 100 µM	22.4 µM	> 100	30.7 µM	> 100	> 100 µM	> 100 µM	52 µM	> 100	–	–	23.4 µM	> 100 µM	30300 nM	> 100 µM	33.9 µM	> 100	48.6 µM	> 100 µM
COc1ccc(/C=C(/C(=O)n2cnnn2)c2cc(OC)c(OC)c(OC)c2)cc1	> 100 µM	> 100 µM	2.03 µM	> 100	3.75 µM	> 100	3.5 µM	> 100 µM	4.7 µM	> 100	3820 nM	> 100	2.26 µM	6.67 µM	2920 nM	7.21 µM	6.71 µM	> 100	3.12 µM	29.4 µM
CC[C@H](C)[C@H](NC(=O)[C@H]1CCCCN1C)C(=O)N(C)[C@H](C[C@@H](OC(C)=O)c1nc(C(=O)N[C@@H](Cc2ccccc2)C[C@H](C)C(=O)OC)cs1)C(C)C	8.72 µM	> 25 µM	0.000332 µM and 0.0025 µM	–	0.000295 µM and 0.0025 µM	> 25	0.000208 µM	–	0.00102 µM and 0.0025 µM	> 25	0.536 nM and 2.5 nM	> 25	0.00028 µM and < 0.0025 µM	0.0135 µM and < 0.0025 µM	0.208 nM and < 2.5 nM	0.00119 µM and < 0.0025 µM	0.765 µM	> 25	9.09e-05 µM and < 0.0025 µM	0.00455 µM and < 0.0025 µM
Cc1n(Cc2ccc3ccccc3c2)c(Cl)c(Cl)[n+]1Cc1ccc2ccccc2c1	1.81 µM	4.21 µM	2.29 µM	6.52	1.69 µM	3.2	2.22 µM	5.26 µM	1.59 µM	3.09	1600 nM	2.95	1.52 µM	3.9 µM	1650 nM	3.8 µM	1.17 µM	2.94	1.69 µM	3.08 µM
